In data set [1] the test system is HSV-1. Kind of data set: In vitro antiviral assay for HSV-1. The settings on record: Human alphaherpesvirus 1, read-out: Antiviral Activities (EC50, μM) HSV-1. The data set is classed as cell-based, Herpes Simplex Virus 1. The gist of the method:
(§1)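 Performed according to previously reported procedures for each virus; no further conditions are given for the HSV-2, CMV, HIV or EBV assays.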

Data set [2] deals with HSV-2. Kind of data set: In vitro antiviral assay for HSV-2. The data set is classed as cell-based, Herpes Simplex Virus 2. The settings on record: Human alphaherpesvirus 2, read-out: Antiviral Activities (EC50, μM) HSV-2. The gist of the method: as §1
The test system of data set [3] is CMV. The experiment in a line: In vitro antiviral assay for CMV. The data set is classed as cell-based, cytomegalovirus. The settings on record: Human betaherpesvirus 5, read-out: Antiviral Activities (EC50, μM) CMV. On the procedure: The antiviral assays for HBV, (Doong et al., 1991, Proc. Natl. Acad. Sci. U.S.A. 88:8495-8499) HSV-1, (Bastow et al., 1983, Antimicrob. Agents Chemother. 23: 914-917) HSV-2, (Bastow et al., 1983, Antimicrob. Agents Chemother. 23:914-917) EBV, (Yao et al., 1993, Antimicrob. Agents Chemother. 37:1420-1425), CMV (Andreoni et al., 2002, J. Med. Virol. 67:33-40) and HIV (Mellors et al., 1992, Mol. Pharmacol. 41: 446-451) were performed according to the previously reported procedures. Anti-HCV activities were tested in Huh-Luc/neo cell line. Cells were seeded into 48-well plates and grown until confluent. Different concentrations of drugs were added into media (DMEM, 10% dFBS) and incubated for 3 days. At the end of 3-day treatment, medium were removed and 50 μl of Passive lysis buffer (Promega) were added. Cell lysate was shaken at room temperature for 15 min. 30 μl/well of cell lysate was transferred to another 96-well plate, 100 μl/well of luciferase activity assay substrate was added into plate and read by a luminometer (Amersham) immediately.

Data set [4] deals with HIV. The experiment in a line: In vitro antiviral assay for HIV. Format: cell-based, human immunodeficiency virus. The conditions noted are these: Human immunodeficiency virus 1, read-out: Antiviral Activities (EC50, μM) HIV, in vitro; (T) after a value means toxic. In short, it runs like this: as §1
Data set [5] is described as follows: Cell cytotoxicity assay on CEM cells. The data set is classed as cell-based. The settings on record: human, read-out: Cytotoxity (ID50, μM) CEM. The gist of the method:
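MT-2 and CEM cytotoxicity determined per previously reported procedures. HepG2 cells seeded at 10^4 cells/ml in MEME + 10% FBS, compound added on day 2 for 3 further days at 37° C. Viable layer stained with methylene blue, solubilized in 1% sarcosyl, A595 read.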

The structures appear in SMILES notation.

As for `O=C1OCc2c1cc1ccc3c(c1c2-c1ccc2c(c1)OCO2)OCO3` [Compound 2, 10-Benzo[1,3]dioxol-5-yl-9H-furo[3′,4′:6,7]naphtho[1,2-d][1,3]dioxol-7-one, reference compound], the EC50 (in general, the concentration needed to bring the measured effect to its halfway point) was 2 µM in data set [1], 35 µM in data set [2], 7.3 µM in data set [3] and > 2.5 µM in data set [4]. In data set [5], the IC50 worked out at 31 µM.
As for `COc1ccc(-c2c3c(cc4ccc5c(c24)OCO5)C(=O)NC3)cc1OC` [Compound 22, 10-(3,4-Dimethoxy-phenyl)-8,9-dihydro-1,3-dioxa-8-aza-dicyclopenta[a,g]naphthalen-7-one], the melting point (usually the temperature of the solid-liquid transition) was 258 °C (dec.). Further, the EC50 in data set [1] worked out at 0.6 µM. In data set [2], the EC50 came to 0.5 µM. The EC50 in data set [4] was > 16 µM. Besides, the IC50 in data set [5] was 5 µM.
